Measurements taken from patent publication US7763429B2, “Compound containing farnesyl diphosphate for modulating TRPV3 function and use thereof” (Korea University Industry and Academic Collaboration …, priority 2008, dated 2010).

Experiments:
mTRPV3 [1] = target: T1, mTRPV3 (Mus musculus, UniProt Q8K424, A9V); test: Whole-cell voltage-clamp recording of mTRPV3 transfected HEK293T cells; assay type: cell-based; details: for TRPV3 activity (whole cell current): mTRPV3 transfected HEK293T cells
T1 construct: transiently transfected with plasmid DNA containing polynucleotide encoding; expressed in transfected cells; host or cells: HEK293T (ATCC CRL-11268), transient
T1 sequence (Q8K424 1-791 A9V): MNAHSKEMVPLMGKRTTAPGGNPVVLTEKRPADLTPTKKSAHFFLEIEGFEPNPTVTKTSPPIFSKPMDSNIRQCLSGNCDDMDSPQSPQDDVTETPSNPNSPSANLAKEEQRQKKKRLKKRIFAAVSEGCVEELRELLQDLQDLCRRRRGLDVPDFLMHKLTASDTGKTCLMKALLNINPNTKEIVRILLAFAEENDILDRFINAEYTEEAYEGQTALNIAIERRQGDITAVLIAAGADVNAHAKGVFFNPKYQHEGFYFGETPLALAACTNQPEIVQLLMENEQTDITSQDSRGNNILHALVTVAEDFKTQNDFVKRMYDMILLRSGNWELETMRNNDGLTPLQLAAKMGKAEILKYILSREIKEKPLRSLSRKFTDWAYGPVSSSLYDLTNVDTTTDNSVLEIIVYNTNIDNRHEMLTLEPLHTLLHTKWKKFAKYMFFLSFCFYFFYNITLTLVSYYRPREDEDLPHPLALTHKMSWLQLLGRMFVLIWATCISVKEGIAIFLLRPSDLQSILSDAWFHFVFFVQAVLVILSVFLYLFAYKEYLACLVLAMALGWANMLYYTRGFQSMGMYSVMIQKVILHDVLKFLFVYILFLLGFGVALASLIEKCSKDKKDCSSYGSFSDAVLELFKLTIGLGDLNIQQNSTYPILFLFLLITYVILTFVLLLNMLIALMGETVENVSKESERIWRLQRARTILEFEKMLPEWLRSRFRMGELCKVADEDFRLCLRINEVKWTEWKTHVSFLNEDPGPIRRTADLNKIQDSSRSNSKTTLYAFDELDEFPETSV
Protocol: (§1) HEK293T cell line (ATCC CRL-11268) was transiently transfected with plasmid DNA containing polynucleotide encoding […] (SEQ. ID. NO: 1), rTRPV2 (SEQ. ID. NO: 2), mTRPV3 (SEQ. ID. NO: 3), rTRPV4 (SEQ. ID. NO: 4), mTRPM8 (SEQ. ID. NO: 5) or mTRPA1 (SEQ. ID. NO: 6).
(§2) Particularly, the HEK293T cell line was transiently transfected with 3 μg/35 mm dish of rTRPV1, rTRPV2, mTRPV3, rTRPV4, mTRPM8 and mTRPA1 plasmid DNA, and 600 ng/well of pCDNA3 (Invitrogen Corp., USA; containing green fluorescent protein (GFP) cDNA) using Fugene6 (Roche Diagnostics, USA) according to manufacturer's instruction. The transformed cells were cultured in DMEM/F12 medium containing 10% FBS and 1% penicillin/streptomycin in a CO2 incubator for 24 hours. The cells were smeared on poly-L-lysine-coated glass coverslips, followed by further culture for 10-24 hours.
The mTRPV3 transfected cell line prepared in Example 1 was treated with 1 μM of FPP (Biomol, USA), 4 mM of camphor (Sigma-Aldrich, USA) and ruthenium red (RR; Sigma-Aldrich, USA) at a required time intervals as shown in FIG. 1a. Stock solutions were made using water or DMSO, and were diluted with test solutions before use.
Whole-cell voltage-clamp recording, one of the patch-clamp techniques, was performed with the transfected cell line of Example <1-1> according to the method of Bandel M, et al. (Neuron 41:849-857, 2004).
Particularly, the extracellular solution (140 mM NaCl, 5 mM KCl, 2 mM CaCl2, 1 mM MgCl2, 10 mM HEPES; titrated to pH 7.4 with NaOH) and the pipette solution (140 mM CsCl, 5 mM EGTA, 10 mM HEPES, 2.0 mM MgATP, 0.2 mM NaGTP; titrated to pH 7.2 with CSOH) were used. The potential was held at −60 mV for 250 ms, voltage-ramp pulsed from −80 mV to +80 mV for […] and returned to −60 mV for 250 ms, which was repeated without intersweep. This experiment was repeated 5 times.

rTRPV2 = target: T2, rTRPV2 (Rattus norvegicus, UniProt Q9WUD2, A713V/L151P/T158I); test: Fluo-3 calcium imaging of TRPV2 transfected HEK293T cells; assay type: cell-based; details: 1 μM of FPP
T2 construct: transiently transfected with plasmid DNA containing polynucleotide encoding; expressed in transfected cells; host or cells: HEK293T (ATCC CRL-11268), transient
T2 sequence (Q9WUD2 1-761 L151P/T158I/A713V): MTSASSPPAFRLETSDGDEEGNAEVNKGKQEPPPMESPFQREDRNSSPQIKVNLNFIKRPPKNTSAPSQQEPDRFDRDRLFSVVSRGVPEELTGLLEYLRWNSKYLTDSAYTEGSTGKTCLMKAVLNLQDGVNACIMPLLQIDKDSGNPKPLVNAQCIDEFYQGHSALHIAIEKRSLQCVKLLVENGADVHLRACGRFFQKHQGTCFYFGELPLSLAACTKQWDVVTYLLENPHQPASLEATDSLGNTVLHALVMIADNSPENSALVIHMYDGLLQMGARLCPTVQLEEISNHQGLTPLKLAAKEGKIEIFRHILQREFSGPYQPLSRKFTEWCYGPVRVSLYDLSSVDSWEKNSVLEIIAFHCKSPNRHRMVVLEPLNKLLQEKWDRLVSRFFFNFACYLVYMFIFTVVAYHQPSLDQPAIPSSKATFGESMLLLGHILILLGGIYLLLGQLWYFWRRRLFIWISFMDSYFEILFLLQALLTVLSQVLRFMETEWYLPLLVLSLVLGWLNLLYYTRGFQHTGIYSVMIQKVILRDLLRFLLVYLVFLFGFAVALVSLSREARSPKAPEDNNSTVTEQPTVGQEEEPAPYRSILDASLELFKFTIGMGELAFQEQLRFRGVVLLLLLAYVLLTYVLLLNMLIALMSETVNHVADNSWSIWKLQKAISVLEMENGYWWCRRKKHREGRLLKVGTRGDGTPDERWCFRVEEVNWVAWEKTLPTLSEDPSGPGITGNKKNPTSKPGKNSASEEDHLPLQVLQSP
Protocol: as §1, §2
(§3) Particularly, the transfected cell line of Example <3-1> was loaded with Fluo-3AM (5 μM; Sigma Aldrich, USA) in the bath solution (140 mM NaCl, 5 mM KCl, 2 mM CaCl2, 1 mM MgCl2, 10 mM HEPES; adjusted to pH 7.4 with NaOH) containing 0.02% pluronic acid (Invitrogen, USA) at 37° C. for 1 hour. Calcium imaging was performed with LSM5 Pascal confocal microscope (Carl Zeiss, Germany), and time-lapse images (excitation 488 nm/emission 514 nm) were collected every 3 seconds using Carl Zeiss ratio tool software (Carl Zeiss, Germany). […]

HaCat skin cells = test: Artificial wound recovery: migration and proliferation of HaCat skin cells; assay type: cell-based; details: 1 μM of FPP, 12 hours after the treatment
Protocol: HaCat (ATCC, CCL-228) cell line was seeded in a 24-well plate. The present inventors drew lines 1 mm deep on the well fully filled with the cells to make artificial wound. The wounded cells were treated with FPP (1 μM), camphor (4 mM), RR (20 μM) and GGPP (10 μM) respectively and incubated in a CO2 incubator for 12 hours. The control group was not-treated. The width of recovered wound was measured under microscope and compared with that at the beginning, which was presented as wound recovery rate. All the experiments were performed on DMEM/FBS. Floating cells, which means dead cells, after making wound, were eliminated by using PBS to eliminate variables caused by dead cells. The cells were observed under microscope (×40, IX 71 OLYMPUS), and distance was measured by using image analysis program (Meta-flour 7.1, Molecular Devices, USA).

mTRPA1 = target: T3, mTRPA1 (Mus musculus, UniProt Q8BLA8); test: Fluo-3 calcium imaging of TRPA1 transfected HEK293T cells; assay type: cell-based; details: 1 μM of FPP
T3 construct: transiently transfected with plasmid DNA containing polynucleotide encoding; expressed in transfected cells; host or cells: HEK293T (ATCC CRL-11268), transient
Protocol: as §1, §2, §3

rTRPV4 = target: T4, rTRPV4 (Rattus norvegicus, UniProt Q9ERZ8); test: Fluo-3 calcium imaging of TRPV4 transfected HEK293T cells; assay type: cell-based; details: 1 μM of FPP
T4 construct: transiently transfected with plasmid DNA containing polynucleotide encoding; expressed in transfected cells; host or cells: HEK293T (ATCC CRL-11268), transient
Protocol: as §1, §2, §3

mTRPV3 [2] = target: T1, mTRPV3; test: Fluo-3 calcium imaging of mTRPV3 transfected HEK293T cells; assay type: cell-based
Protocol: as §1, §2
The mTRPV3 transfected cell line prepared in Example 1 was treated with FPP at different concentrations from 0.1 to 1,000 nM.
Particularly, the transfected cell line of Example <3-1> was loaded with Fluo-3AM (5 μM; Sigma Aldrich, USA) in the bath solution (140 mM NaCl, 5 mM KCl, 2 mM CaCl2, 1 mM MgCl2, 10 mM HEPES; adjusted to pH 7.4 with NaOH) containing 0.02% pluronic acid (Invitrogen, USA) at 37° C. for 1 hour. Calcium imaging was performed with LSM5 Pascal confocal microscope (Carl Zeiss, Germany), and time-lapse images (excitation 488 nm/emission 514 nm) were collected every 3 seconds using Carl Zeiss ratio tool software (Carl Zeiss, Germany). Mean value curve of calcium influx response (n=12−62 per each experimental values) was made by Hill plot.
The TRPA1, TRPV1, TRPV2, TRPV3, TRPV4 and TRPM8 transfected cell lines prepared by the method of Example 1 and the non-transfected HEK cell line (control group) were treated with 1 μM of FPP. Calcium imaging was performed with the transfected cell lines treated as the above by the same manner as described in Example <3-2>.
The TRPA1, TRPV1, TRPV2, TRPV3, TRPV4 and TRPM8 transfected cell lines prepared by the method of Example 1 and the non-transfected HEK cell line (control group) were treated with 10 μM of IPP (isopentenyl pyrophosphate: Biomol, USA) and 10 μM of GGPP (geranyl-geranyl pyrophosphate: Biomol, USA), the TRPV3 regulator analogues. Calcium imaging was performed with the transfected cell lines treated as the above by the same manner as described in Example <3-2>.

mice = test: Acute hind paw licking/flicking behaviors after CFA inflammatory sensitization; assay type: in vivo; details: CFA-injected right hind paw, FPP injected into hind paw, 20 minutes
Protocol: Inflammatory sensitization by FPP was investigated. Particularly, 10 μl of CFA (complete Freund's adjuvant; Sigma Aldrich, USA) was injected to the right hind paws of mice 24 hours before the FPP injection. Before the experiment, the mice were adapted for one hour to the experimental environment. 10 μl of vehicle (saline containing 3% DMSO and 0.5% Tween 80) alone or 10 μl of vehicle containing FPP (3 mM) was injected to the right hind paws of the mice. The time spent for the hind paw licking/flicking behaviors in mice were measured according to the method of Bandell M, et al. (Neuron 41:849-857, 2004) and Moqrich A, et al. (Science 307:1468-1472, 2005), for 20 minutes. Control: not-treated; Experimental group 1.20 μl of CFA+300 μM of FPP PBS solution (black circle); Experimental group 2.20 μl of CFA (white circle).

mTRPM8 = target: T5, mTRPM8 (Mus musculus, UniProt Q8R4D5); test: Fluo-3 calcium imaging of TRPM8 transfected HEK293T cells; assay type: cell-based; details: 1 μM of FPP
T5 construct: transiently transfected with plasmid DNA containing polynucleotide encoding; expressed in transfected cells; host or cells: HEK293T (ATCC CRL-11268), transient
Protocol: as §1, §2, §3

rTRPV1 = target: T6, rTRPV1 (Rattus norvegicus, UniProt O35433); test: Fluo-3 calcium imaging of TRPV1 transfected HEK293T cells; assay type: cell-based; details: 1 μM of FPP
T6 construct: transiently transfected with plasmid DNA containing polynucleotide encoding; expressed in transfected cells; host or cells: HEK293T (ATCC CRL-11268), transient
Protocol: as §1, §2, §3

T4 sequence (Q9ERZ8 whole entry): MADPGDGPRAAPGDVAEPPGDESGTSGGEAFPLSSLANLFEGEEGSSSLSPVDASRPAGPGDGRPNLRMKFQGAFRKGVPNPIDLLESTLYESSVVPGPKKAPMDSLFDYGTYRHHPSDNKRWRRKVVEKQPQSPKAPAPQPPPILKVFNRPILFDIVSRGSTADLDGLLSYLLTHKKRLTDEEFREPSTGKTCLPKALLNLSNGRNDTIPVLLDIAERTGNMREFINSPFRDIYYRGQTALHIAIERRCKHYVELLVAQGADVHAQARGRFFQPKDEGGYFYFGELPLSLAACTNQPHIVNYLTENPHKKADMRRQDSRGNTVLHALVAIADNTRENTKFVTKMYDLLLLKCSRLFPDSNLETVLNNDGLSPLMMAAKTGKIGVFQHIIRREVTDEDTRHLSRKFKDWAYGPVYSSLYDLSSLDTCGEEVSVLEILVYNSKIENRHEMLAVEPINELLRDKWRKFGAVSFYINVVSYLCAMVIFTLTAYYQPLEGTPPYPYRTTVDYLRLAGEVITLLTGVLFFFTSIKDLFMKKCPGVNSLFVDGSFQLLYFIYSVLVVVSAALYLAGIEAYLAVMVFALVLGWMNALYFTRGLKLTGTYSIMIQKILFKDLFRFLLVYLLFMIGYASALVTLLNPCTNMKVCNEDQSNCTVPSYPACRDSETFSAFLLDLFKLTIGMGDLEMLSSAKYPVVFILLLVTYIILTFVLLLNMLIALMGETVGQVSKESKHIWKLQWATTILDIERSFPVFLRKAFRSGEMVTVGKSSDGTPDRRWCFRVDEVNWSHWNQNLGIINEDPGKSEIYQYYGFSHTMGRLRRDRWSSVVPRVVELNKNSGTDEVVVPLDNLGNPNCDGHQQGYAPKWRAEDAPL
T6 sequence (O35433 whole entry): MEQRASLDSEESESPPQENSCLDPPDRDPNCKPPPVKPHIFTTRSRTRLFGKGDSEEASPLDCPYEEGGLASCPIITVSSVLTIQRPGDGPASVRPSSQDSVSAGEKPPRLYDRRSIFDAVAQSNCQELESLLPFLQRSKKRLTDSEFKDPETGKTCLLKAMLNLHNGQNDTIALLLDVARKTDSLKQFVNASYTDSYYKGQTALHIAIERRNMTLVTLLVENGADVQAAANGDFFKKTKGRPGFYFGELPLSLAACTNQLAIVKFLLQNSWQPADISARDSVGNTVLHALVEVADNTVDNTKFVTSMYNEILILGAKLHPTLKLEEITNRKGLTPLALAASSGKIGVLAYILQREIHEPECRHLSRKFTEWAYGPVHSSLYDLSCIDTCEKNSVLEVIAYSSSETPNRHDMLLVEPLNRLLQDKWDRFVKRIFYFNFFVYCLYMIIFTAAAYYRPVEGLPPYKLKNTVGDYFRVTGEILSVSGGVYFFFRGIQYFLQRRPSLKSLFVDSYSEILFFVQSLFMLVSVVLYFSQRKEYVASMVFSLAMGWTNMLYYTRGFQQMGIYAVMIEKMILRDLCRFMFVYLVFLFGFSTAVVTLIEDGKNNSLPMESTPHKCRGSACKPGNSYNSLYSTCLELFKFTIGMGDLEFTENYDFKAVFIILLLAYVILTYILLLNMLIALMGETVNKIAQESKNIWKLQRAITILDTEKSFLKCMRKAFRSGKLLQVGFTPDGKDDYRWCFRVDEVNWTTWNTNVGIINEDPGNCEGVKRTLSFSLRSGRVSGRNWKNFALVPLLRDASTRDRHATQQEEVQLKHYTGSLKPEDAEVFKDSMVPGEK
T5 sequence (Q8R4D5 whole entry): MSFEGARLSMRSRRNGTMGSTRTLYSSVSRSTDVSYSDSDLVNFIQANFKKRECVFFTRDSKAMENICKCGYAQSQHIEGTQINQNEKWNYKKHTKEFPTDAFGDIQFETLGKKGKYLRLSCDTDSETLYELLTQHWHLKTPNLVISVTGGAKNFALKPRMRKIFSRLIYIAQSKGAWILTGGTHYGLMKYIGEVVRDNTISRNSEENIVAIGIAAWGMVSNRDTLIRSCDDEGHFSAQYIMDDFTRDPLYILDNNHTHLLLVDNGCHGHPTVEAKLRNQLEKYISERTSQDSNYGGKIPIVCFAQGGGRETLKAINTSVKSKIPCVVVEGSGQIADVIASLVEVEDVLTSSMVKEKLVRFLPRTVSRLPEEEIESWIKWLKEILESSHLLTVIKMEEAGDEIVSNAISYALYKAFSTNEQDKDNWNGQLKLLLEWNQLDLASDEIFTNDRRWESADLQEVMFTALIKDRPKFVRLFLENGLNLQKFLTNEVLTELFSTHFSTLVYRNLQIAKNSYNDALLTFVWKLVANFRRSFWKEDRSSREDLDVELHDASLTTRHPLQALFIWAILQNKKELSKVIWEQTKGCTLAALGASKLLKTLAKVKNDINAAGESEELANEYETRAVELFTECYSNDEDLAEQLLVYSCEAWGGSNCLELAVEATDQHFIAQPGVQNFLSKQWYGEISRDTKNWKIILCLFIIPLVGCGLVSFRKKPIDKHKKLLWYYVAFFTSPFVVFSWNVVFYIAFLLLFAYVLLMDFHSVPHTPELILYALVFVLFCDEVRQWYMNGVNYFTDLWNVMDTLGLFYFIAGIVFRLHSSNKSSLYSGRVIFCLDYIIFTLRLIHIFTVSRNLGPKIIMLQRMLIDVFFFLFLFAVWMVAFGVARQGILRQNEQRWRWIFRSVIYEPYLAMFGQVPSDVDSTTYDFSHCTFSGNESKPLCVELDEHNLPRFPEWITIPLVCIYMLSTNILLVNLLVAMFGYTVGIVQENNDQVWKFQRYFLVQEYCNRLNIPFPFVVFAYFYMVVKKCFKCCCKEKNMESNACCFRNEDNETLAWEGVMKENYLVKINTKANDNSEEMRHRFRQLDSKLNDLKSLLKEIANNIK
T3 sequence (Q8BLA8 whole entry): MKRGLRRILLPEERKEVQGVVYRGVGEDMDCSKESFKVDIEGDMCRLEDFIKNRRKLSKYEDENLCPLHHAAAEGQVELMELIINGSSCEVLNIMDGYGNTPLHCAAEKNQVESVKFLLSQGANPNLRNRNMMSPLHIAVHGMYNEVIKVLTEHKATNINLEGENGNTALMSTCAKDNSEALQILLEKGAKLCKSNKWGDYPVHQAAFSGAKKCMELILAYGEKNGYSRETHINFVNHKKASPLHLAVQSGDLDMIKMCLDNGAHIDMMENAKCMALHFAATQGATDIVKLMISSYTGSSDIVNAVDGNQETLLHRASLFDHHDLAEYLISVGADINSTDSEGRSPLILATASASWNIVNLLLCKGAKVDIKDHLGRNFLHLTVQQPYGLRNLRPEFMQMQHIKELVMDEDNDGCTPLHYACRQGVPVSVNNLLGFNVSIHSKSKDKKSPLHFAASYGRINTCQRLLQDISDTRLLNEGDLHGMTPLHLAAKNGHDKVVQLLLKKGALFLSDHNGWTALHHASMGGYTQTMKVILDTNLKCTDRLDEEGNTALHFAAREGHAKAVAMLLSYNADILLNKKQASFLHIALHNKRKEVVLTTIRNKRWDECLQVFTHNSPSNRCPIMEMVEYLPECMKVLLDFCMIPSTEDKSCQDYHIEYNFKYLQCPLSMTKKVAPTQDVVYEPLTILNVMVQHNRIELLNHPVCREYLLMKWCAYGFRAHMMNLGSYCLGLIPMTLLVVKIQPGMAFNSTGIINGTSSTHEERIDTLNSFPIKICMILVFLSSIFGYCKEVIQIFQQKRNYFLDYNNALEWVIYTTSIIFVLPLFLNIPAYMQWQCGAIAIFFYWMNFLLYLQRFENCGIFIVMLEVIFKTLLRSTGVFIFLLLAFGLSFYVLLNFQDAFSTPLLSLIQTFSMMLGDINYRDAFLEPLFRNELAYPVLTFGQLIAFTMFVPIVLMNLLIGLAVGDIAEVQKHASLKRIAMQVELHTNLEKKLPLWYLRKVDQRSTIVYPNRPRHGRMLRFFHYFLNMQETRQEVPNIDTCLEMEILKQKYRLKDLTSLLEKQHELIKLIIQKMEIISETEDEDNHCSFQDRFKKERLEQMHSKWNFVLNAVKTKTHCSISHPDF

CC(C)=CCCC(C)=CCCC(C)=CCOP(=O)(O)OP(=O)(O)O [FPP, 3,7,11-trimethyldodeca-2,6,10-trien-1-yl trihydrogen diphosphate]
TRPV3 activity (whole cell current) (mTRPV3 [1]; 1 μM of FPP, +60 mV and −60 mV): significant increase of TRPV3 activity | TRPV2 activation (calcium imaging) (rTRPV2): did not exhibited activity | migration and proliferation of HaCat skin cells (wound recovery rate) (HaCat skin cells): significantly inhibited | TRPA1 activation (calcium imaging) (mTRPA1): did not exhibited activity | TRPV4 activation (calcium imaging) (rTRPV4): did not exhibited activity | TRPV3 activation (calcium imaging) (mTRPV3 [2]; 1 μM of FPP): activated | maximal effective dose (mTRPV3 [2]; calcium influx response, FPP 0.1 to 1,000 nM): approximately 1 μM | EC50 (mTRPV3 [2]; calcium influx response, FPP 0.1 to 1,000 nM, Hill plot, read-out: EC50 (effective concentration 50%) to TRPV3): 31.9 nM | hind paw licking/flicking behavior (pain) (mice): significantly increased licking/flicking behavior | TRPM8 activation (calcium imaging) (mTRPM8): did not exhibited activity | TRPV1 activation (calcium imaging) (rTRPV1): did not exhibited activity

CC(C)=CCC/C(C)=C/CC/C(C)=C/CC/C(C)=C/COP(=O)(O)OP(=O)(O)O [GGPP, geranyl-geranyl pyrophosphate, reference compound]
TRPV3 activation (calcium imaging) (mTRPV3 [2]; 10 μM of analogue): did not induce TRPV3 activation

N.N.N.N.N.N.N.N.N.N.N.N.N.N.[Cl-].[Cl-].[Cl-].[Cl-].[Cl-].[Cl-].[O-2].[O-2].[Ru+3].[Ru+3].[Ru+4] [ruthenium red]
TRPV3 activity (whole cell current) on treatment with the TRP ion channel blocker (mTRPV3 [1]; ruthenium red applied to the activated mTRPV3 transfected cells): activity was reduced

CC12CCC(CC1=O)C2(C)C (centres unmarked) [camphor]
TRPV3 activity (whole cell current) (mTRPV3 [1]; camphor 4 mM): the activity was not so much increased
